Laboratory results reported in patent US10301355B2, “Method of using pharmaceutical compositions comprising selective peptide-based agonists of melanocortin 1 receptor” (University of Cincinnati, priority 2012, dated 2019).

Columns and labels:
[1] = system: human melanocytes; assay: Potency in human melanocytes; format: cell-based
[2] = system: mouse MCRs; settings: cited from earlier work

trans-4-HOC6H4CH═CHCO-His-D-Phe-Arg-NH2
potency in human melanocytes [1]: less potent in human melanocytes
MC1R selectivity and potency compared to tripeptide LK-394 [2]: moderately increased MC1R selectivity and potency
